Reference: article PMC5218480 (PLoS ONE, 2017)

Test system: MV-4-11 cells
Experiment: Gene expression microarray analysis (Affymetrix PrimeView) and GSEA
Assay type: cell-based, human
Design: RFU PODN (11730768_x_at) / Fold change /veh PODN (11730768_x_at) / RFU LINC00158 (11744669_a_at) / Fold change /veh LINC00158 (11744669_a_at) / RFU DUSP10 (11751237_a_at) / Fold change /veh DUSP10 (11751237_a_at) / RFU ID3 (11757404_x_at) / Fold change /veh ID3 (11757404_x_at) / RFU PLEKHG5 (11737974_s_at) / Fold change /veh PLEKHG5 (11737974_s_at) / RFU LRRC4B (11730491_at) / Fold change /veh LRRC4B (11730491_at) / RFU GIMAP4 (11747438_a_at) / Fold change /veh GIMAP4 (11747438_a_at) / RFU KRT8 (11758183_x_at) / Fold change /veh KRT8 (11758183_x_at) / RFU CNN1 (11734310_a_at) / Fold change /veh CNN1 (11734310_a_at) / RFU VPS37D (11726825_at) / Fold change /veh VPS37D (11726825_at) / RFU C10orf10 (11716522_x_at) / Fold change /veh C10orf10 (11716522_x_at) / RFU KIR2DL2 /// KIR2DL4 /// KIR2DL5A /// KIR2DL5B /// KIR2DS1 /// KIR2DS2 /// KIR2DS3 /// KIR2DS4 /// KIR3DL3 /// KIR3DL3 /// KIR3DS1 (11738374_at) / Fold change /veh KIR2DL2 /// KIR2DL4 /// KIR2DL5A /// KIR2DL5B /// KIR2DS1 /// KIR2DS2 /// KIR2DS3 /// KIR2DS4 /// KIR3DL3 /// KIR3DL3 /// KIR3DS1 (11738374_at) / RFU C1QL1 (11718748_at) / Fold change /veh C1QL1 (11718748_at) / RFU TMPRSS4 (11747572_a_at) / Fold change /veh TMPRSS4 (11747572_a_at) / RFU HAMP (11756126_x_at) / Fold change /veh HAMP (11756126_x_at) / RFU RNFT2 (11725882_a_at) / Fold change /veh RNFT2 (11725882_a_at) / RFU NR4A2 (11747474_a_at) / Fold change /veh NR4A2 (11747474_a_at) / RFU ABCC12 (11746883_a_at) / Fold change /veh ABCC12 (11746883_a_at) / RFU TMEM136 (11760407_x_at) / Fold change /veh TMEM136 (11760407_x_at) / RFU CLDN22 /// WWC2 (11732394_at) / Fold change /veh CLDN22 /// WWC2 (11732394_at) / RFU HLA-DPB1 (11760878_x_at) / Fold change /veh HLA-DPB1 (11760878_x_at) / RFU SPINT1 (11716480_a_at) / Fold change /veh SPINT1 (11716480_a_at) / RFU GAP43 (11754022_s_at) / Fold change /veh GAP43 (11754022_s_at) / RFU A4GNT (11735810_at) / Fold change /veh A4GNT (11735810_at) / RFU PRB3 (11715151_x_at) / Fold change /veh PRB3 (11715151_x_at) / RFU TUBB4B (11761932_at) / Fold change /veh TUBB4B (11761932_at) / RFU CAPN14 (11732068_a_at) / Fold change /veh CAPN14 (11732068_a_at) / RFU TMCC2 (11721928_a_at) / Fold change /veh TMCC2 (11721928_a_at) / RFU IRGQ (11745062_a_at) / Fold change /veh IRGQ (11745062_a_at) / RFU FAM174B (11720279_a_at) / Fold change /veh FAM174B (11720279_a_at) / RFU TMPRSS4 (11748680_a_at) / Fold change /veh TMPRSS4 (11748680_a_at) / RFU FAM212B (11763350_a_at) / Fold change /veh FAM212B (11763350_a_at) / RFU PLEKHG5 (11743358_a_at) / Fold change /veh PLEKHG5 (11743358_a_at) / RFU ZSCAN30 (11745921_a_at) / Fold change /veh ZSCAN30 (11745921_a_at) / RFU CMKLR1 (11741424_a_at) / Fold change /veh CMKLR1 (11741424_a_at) / RFU LOC101060620 /// MAPK8IP1 (11723275_at) / Fold change /veh LOC101060620 /// MAPK8IP1 (11723275_at) / RFU SPTSSB (11747773_x_at) / Fold change /veh SPTSSB (11747773_x_at) / RFU PRSS12 (11739890_at) / Fold change /veh PRSS12 (11739890_at) / RFU BIN1 (11741810_x_at) / Fold change /veh BIN1 (11741810_x_at) / RFU WNT11 (11732464_a_at) / Fold change /veh WNT11 (11732464_a_at) / RFU C10orf10 (11716521_a_at) / Fold change /veh C10orf10 (11716521_a_at) / RFU C5orf56 (11738089_at) / Fold change /veh C5orf56 (11738089_at) / RFU CYB561 (11721691_x_at) / Fold change /veh CYB561 (11721691_x_at) / RFU ANKRD19P (11752326_a_at) / Fold change /veh ANKRD19P (11752326_a_at) / RFU OR2T12 /// OR2T33 /// OR2T8 (11738714_s_at) / Fold change /veh OR2T12 /// OR2T33 /// OR2T8 (11738714_s_at) / RFU VCAN (11748164_a_at) / Fold change /veh VCAN (11748164_a_at) / RFU JSRP1 (11732532_at) / Fold change /veh JSRP1 (11732532_at) / RFU KRTAP10-11 (11738290_x_at) / Fold change /veh KRTAP10-11 (11738290_x_at) / RFU MYO3A (11730013_a_at) / Fold change /veh MYO3A (11730013_a_at) / RFU EBF3 (11725865_a_at) / Fold change /veh EBF3 (11725865_a_at) / RFU CAMK2N1 (11719241_x_at) / Fold change /veh CAMK2N1 (11719241_x_at) / RFU C5orf56 (11738088_a_at) / Fold change /veh C5orf56 (11738088_a_at) / RFU OLFML3 (11715873_a_at) / Fold change /veh OLFML3 (11715873_a_at) / RFU LOC100653217 /// NTM (11731650_a_at) / Fold change /veh LOC100653217 /// NTM (11731650_a_at) / RFU MAPK11 (11762145_a_at) / Fold change /veh MAPK11 (11762145_a_at) / RFU FIZ1 (11724087_x_at) / Fold change /veh FIZ1 (11724087_x_at) / RFU OASL (11726364_x_at) / Fold change /veh OASL (11726364_x_at) / RFU SOX15 (11748057_x_at) / Fold change /veh SOX15 (11748057_x_at) / RFU CD79A (11719716_a_at) / Fold change /veh CD79A (11719716_a_at) / RFU HIST1H1D (11736915_at) / Fold change /veh HIST1H1D (11736915_at) / RFU CASKIN2 (11723855_a_at) / Fold change /veh CASKIN2 (11723855_a_at) / RFU LOC730098 (11760151_x_at) / Fold change /veh LOC730098 (11760151_x_at) / RFU OR4N2 (11742367_at) / Fold change /veh OR4N2 (11742367_at) / RFU PRRT2 (11749266_a_at) / Fold change /veh PRRT2 (11749266_a_at) / RFU SNX32 (11753110_a_at) / Fold change /veh SNX32 (11753110_a_at) / RFU CDHR5 (11726645_a_at) / Fold change /veh CDHR5 (11726645_a_at) / RFU RCAN1 (11760418_a_at) / Fold change /veh RCAN1 (11760418_a_at) / RFU FAM167A (11723789_a_at) / Fold change /veh FAM167A (11723789_a_at) / RFU FAM26E (11764081_at) / Fold change /veh FAM26E (11764081_at) / RFU ISYNA1 (11749810_s_at) / Fold change /veh ISYNA1 (11749810_s_at) / RFU ACY1 (11761880_at) / Fold change /veh ACY1 (11761880_at) / RFU 11764098_at / Fold change /veh 11764098_at / RFU SAMD14 (11745864_x_at) / Fold change /veh SAMD14 (11745864_x_at) / RFU NPB (11741838_a_at) / Fold change /veh NPB (11741838_a_at) / RFU TMPRSS6 (11731388_a_at) / Fold change /veh TMPRSS6 (11731388_a_at) / RFU KRTAP10-2 (11738614_at) / Fold change /veh KRTAP10-2 (11738614_at) / RFU ARHGAP8 /// PRR5-ARHGAP8 (11727945_x_at) / Fold change /veh ARHGAP8 /// PRR5-ARHGAP8 (11727945_x_at) / RFU KRTAP5-7 /// NADSYN1 (11734609_at) / Fold change /veh KRTAP5-7 /// NADSYN1 (11734609_at) / RFU RASL12 (11751679_a_at) / Fold change /veh RASL12 (11751679_a_at) / RFU CDKN2B (11736163_a_at) / Fold change /veh CDKN2B (11736163_a_at) / RFU PRF1 (11729649_at) / Fold change /veh PRF1 (11729649_at) / RFU, ZNF638 /// ZNF638-IT1 / Fold change vs veh, ZNF638 /// ZNF638-IT1 / RFU, PANK3 / Fold change vs veh, PANK3 / RFU, SH3YL1 / Fold change vs veh, SH3YL1 / RFU, ZEB2 / Fold change vs veh, ZEB2 / RFU, NRIP1 / Fold change vs veh, NRIP1 / RFU, PTTG1IP / Fold change vs veh, PTTG1IP / RFU, CAPN2 / Fold change vs veh, CAPN2 / RFU, MED14 / Fold change vs veh, MED14 / RFU, SNORA58 / Fold change vs veh, SNORA58 / RFU, C1orf63 / Fold change vs veh, C1orf63 / RFU, LRRFIP1 / Fold change vs veh, LRRFIP1 / RFU, NDUFAF7 / Fold change vs veh, NDUFAF7 / RFU, SLC12A2 / Fold change vs veh, SLC12A2 / RFU, IBTK / Fold change vs veh, IBTK / RFU, ESF1 / Fold change vs veh, ESF1 / Fold change vs veh, TMEM50B / RFU, TAOK1 / Fold change vs veh, TAOK1 / RFU, ACBD3 / Fold change vs veh, ACBD3 / RFU, TMA16 / Fold change vs veh, TMA16 / RFU, RWDD3 / Fold change vs veh, RWDD3 / RFU, BCAT1 / Fold change vs veh, BCAT1 / RFU, EDEM3 / Fold change vs veh, EDEM3 / RFU, TMEM33 / Fold change vs veh, TMEM33 / RFU, WDR75 / Fold change vs veh, WDR75 / RFU, AHCTF1 / Fold change vs veh, AHCTF1 / RFU, TFRC / Fold change vs veh, TFRC / RFU, ZDHHC17 / Fold change vs veh, ZDHHC17 / RFU, NOM1 / Fold change vs veh, NOM1 / RFU, ARL8B / Fold change vs veh, ARL8B / RFU, ZBTB11 / Fold change vs veh, ZBTB11 / RFU, TAMM41 / Fold change vs veh, TAMM41 / RFU, KIAA1704 /// LOC100996395 / Fold change vs veh, KIAA1704 /// LOC100996395 / RFU, ING1 / Fold change vs veh, ING1 / RFU, TRMT61B / Fold change vs veh, TRMT61B / RFU, FUBP3 / Fold change vs veh, FUBP3 / RFU, TP53 / Fold change vs veh, TP53 / RFU, TNKS2 / Fold change vs veh, TNKS2 / RFU, ZFP14 / Fold change vs veh, ZFP14 / RFU, ACTR2 / Fold change vs veh, ACTR2 / RFU, PPP3R1 / Fold change vs veh, PPP3R1 / RFU, PIK3R1 / Fold change vs veh, PIK3R1 / RFU, HNRNPA1 / Fold change vs veh, HNRNPA1 / RFU, RNF170 / Fold change vs veh, RNF170 / RFU, ZNF28 / Fold change vs veh, ZNF28 / RFU, RNGTT / Fold change vs veh, RNGTT / RFU, OGT / Fold change vs veh, OGT / RFU, BRD1 / Fold change vs veh, BRD1 / RFU, MARS / Fold change vs veh, MARS / RFU, ZNF655 / Fold change vs veh, ZNF655 / RFU, FAHD1 / Fold change vs veh, FAHD1 / RFU, BDP1 / Fold change vs veh, BDP1 / RFU, LRRCC1 / Fold change vs veh, LRRCC1 / RFU, ARID1A / Fold change vs veh, ARID1A / RFU, ZNF146 / Fold change vs veh, ZNF146 / RFU, ZNF330 / Fold change vs veh, ZNF330 / RFU, GPN3 / Fold change vs veh, GPN3 / RFU, C9orf123 / Fold change vs veh, C9orf123 / RFU, N4BP2L2 / Fold change vs veh, N4BP2L2 / RFU, ARFIP1 / Fold change vs veh, ARFIP1 / RFU, FAM179B / Fold change vs veh, FAM179B / RFU, BCL10 / Fold change vs veh, BCL10 / RFU, UHRF1BP1L / Fold change vs veh, UHRF1BP1L / RFU, BET1 / Fold change vs veh, BET1 / RFU, CNOT2 / Fold change vs veh, CNOT2 / RFU, ZNF268 / Fold change vs veh, ZNF268 / Fold change vs veh, ZNF507 / RFU, DGCR2 / Fold change vs veh, DGCR2 / RFU, WDSUB1 / Fold change vs veh, WDSUB1 / Fold change vs veh, HSP90B1 /// MIR3652 / RFU, ADSS / Fold change vs veh, ADSS / RFU, GK / Fold change vs veh, GK / RFU, ZNF148 / Fold change vs veh, ZNF148 / RFU, TAF9 / Fold change vs veh, TAF9 / RFU, SLC1A5 / Fold change vs veh, SLC1A5 / RFU, SLMO2 / Fold change vs veh, SLMO2 / RFU, ABCC4 / Fold change vs veh, ABCC4 / RFU, LOC101060439 /// RAP1B / Fold change vs veh, LOC101060439 /// RAP1B / RFU, RFX7 / Fold change vs veh, RFX7 / RFU, GTPBP10 / Fold change vs veh, GTPBP10 / RFU, CNEP1R1 / Fold change vs veh, CNEP1R1 / RFU, BIVM-ERCC5 /// ERCC5 / Fold change vs veh, BIVM-ERCC5 /// ERCC5 / RFU, ILF3 / Fold change vs veh, ILF3 / RFU 11762660_at / Fold change /veh 11762660_at / RFU VCAN (11757783_s_at) / Fold change /veh VCAN (11757783_s_at) / RFU DDX43 (11728927_at) / Fold change /veh DDX43 (11728927_at) / RFU KRT8 (11758188_x_at) / Fold change /veh KRT8 (11758188_x_at) / RFU NKD1 (11759106_at) / Fold change /veh NKD1 (11759106_at) / RFU SRD5A1 (11742802_a_at) / Fold change /veh SRD5A1 (11742802_a_at) / RFU TPSAB1 /// TPSB2 (11721975_s_at) / Fold change /veh TPSAB1 /// TPSB2 (11721975_s_at) / RFU GSTM3 (11746129_a_at) / Fold change /veh GSTM3 (11746129_a_at) / RFU IL23R (11737362_x_at) / Fold change /veh IL23R (11737362_x_at) / RFU TMEM51 (11727254_a_at) / Fold change /veh TMEM51 (11727254_a_at) / RFU PIWIL2 (11732686_x_at) / Fold change /veh PIWIL2 (11732686_x_at) / RFU ORM1 (11744905_x_at) / Fold change /veh ORM1 (11744905_x_at) / RFU CCDC152 (11743942_at) / Fold change /veh CCDC152 (11743942_at) / RFU ECM1 (11717891_a_at) / Fold change /veh ECM1 (11717891_a_at) / RFU IL23R (11748794_a_at) / Fold change /veh IL23R (11748794_a_at) / RFU TNFAIP8L3 (11732012_x_at) / Fold change /veh TNFAIP8L3 (11732012_x_at) / RFU MBOAT4 (11741988_at) / Fold change /veh MBOAT4 (11741988_at) / RFU 11764193_at / Fold change /veh 11764193_at / RFU TMEM53 (11763286_at) / Fold change /veh TMEM53 (11763286_at) / RFU MAGEB2 (11727129_at) / Fold change /veh MAGEB2 (11727129_at) / RFU TMEM200A (11744735_a_at) / Fold change /veh TMEM200A (11744735_a_at) / RFU CCDC152 (11751479_a_at) / Fold change /veh CCDC152 (11751479_a_at) / RFU FAM211A (11726209_a_at) / Fold change /veh FAM211A (11726209_a_at) / RFU RGS16 (11746705_a_at) / Fold change /veh RGS16 (11746705_a_at) / RFU VCAN (11755009_s_at) / Fold change /veh VCAN (11755009_s_at) / RFU RHOB (11743442_s_at) / Fold change /veh RHOB (11743442_s_at) / RFU RGS16 (11720943_a_at) / Fold change /veh RGS16 (11720943_a_at) / RFU RGS16 (11720944_at) / Fold change /veh RGS16 (11720944_at) / RFU, VPS4B / Fold change vs veh, VPS4B / RFU, CREB1 / Fold change vs veh, CREB1 / RFU, DNAJC13 / Fold change vs veh, DNAJC13 / RFU, GNAQ / Fold change vs veh, GNAQ / RFU, CDK5R1 / Fold change vs veh, CDK5R1 / RFU, ZRANB3 / Fold change vs veh, ZRANB3 / RFU, CUL4A / Fold change vs veh, CUL4A / RFU, CCNY / Fold change vs veh, CCNY / RFU, UFL1 / Fold change vs veh, UFL1 / RFU, COG3 / Fold change vs veh, COG3 / RFU, DIAPH2 / Fold change vs veh, DIAPH2 / RFU, SKA2 / Fold change vs veh, SKA2 / RFU, AFF3 / Fold change vs veh, AFF3 / RFU, LMF1 / Fold change vs veh, LMF1 / RFU, IPO11 / Fold change vs veh, IPO11 / RFU, DFFB / Fold change vs veh, DFFB / RFU, FOXP1 / Fold change vs veh, FOXP1 / RFU, CARD8 / Fold change vs veh, CARD8 / RFU, STRN3 / Fold change vs veh, STRN3 / RFU, ADK / Fold change vs veh, ADK / RFU, RASSF2 / Fold change vs veh, RASSF2 / RFU, WIPF1 / Fold change vs veh, WIPF1 / RFU, LARP1B / Fold change vs veh, LARP1B / RFU, RASA1 / Fold change vs veh, RASA1 / RFU, RB1 / Fold change vs veh, RB1 / RFU, PPFIA1 / Fold change vs veh, PPFIA1 / RFU, MAT2A / Fold change vs veh, MAT2A / RFU, CCT5 / Fold change vs veh, CCT5 / RFU, WDR92 / Fold change vs veh, WDR92 / RFU, CUX1 / Fold change vs veh, CUX1 / RFU, TTC7A / Fold change vs veh, TTC7A / RFU, TMEM135 / Fold change vs veh, TMEM135 / RFU, DEPTOR / Fold change vs veh, DEPTOR / RFU, CPM / Fold change vs veh, CPM / RFU, DNAJB6 / Fold change vs veh, DNAJB6 / RFU, CACNA2D3 / Fold change vs veh, CACNA2D3 / RFU, DTX4 / Fold change vs veh, DTX4 / RFU, TFCP2 / Fold change vs veh, TFCP2 / RFU, GMCL1 /// GMCL1P1 / Fold change vs veh, GMCL1 /// GMCL1P1 / RFU, AEBP2 / Fold change vs veh, AEBP2 / RFU, SNHG1 /// SNORD22 /// SNORD25 /// SNORD26 /// SNORD27 /// SNORD28 /// SNORD29 /// SNORD31 / Fold change vs veh, SNHG1 /// SNORD22 /// SNORD25 /// SNORD26 /// SNORD27 /// SNORD28 /// SNORD29 /// SNORD31 / Fold change (Aza/veh), C12orf56 (ProbeSet 11735607_a_at) / Fold change (ACY-1035/veh), C12orf56 (ProbeSet 11735607_a_at) / Fold change (Aza/veh), FGFR1OP (ProbeSet 11751329_s_at) / Fold change (ACY-1035/veh), FGFR1OP (ProbeSet 11751329_s_at) / Fold change (Aza/veh), VPS36 (ProbeSet 11739960_a_at) / Fold change (ACY-1035/veh), VPS36 (ProbeSet 11739960_a_at) / RFU SYPL1 (11715823_x_at) / Fold change /veh SYPL1 (11715823_x_at) / RFU IGFBP7 (11715501_s_at) / Fold change /veh IGFBP7 (11715501_s_at) / RFU REEP3 (11722064_at) / Fold change /veh REEP3 (11722064_at) / RFU IGLL1 (11728026_x_at) / Fold change /veh IGLL1 (11728026_x_at): dose or concentration left out as unconfirmed
Conditions: ProbeSet 11756954_s_at; LIST B

Nc1ccc(-c2cccs2)cc1NC(=O)c1ccc2c(c1)cc(C1CC1)n2CCN1CCOCC1 [ACY-1035]
RFU, ZEB2: 1361.36 RFU
